From patent US8314215B2, “Mild chemically cleavable linker system” (The Board of Trustees of the Leland Stanford Junior …, priority 2006, dated 2012)

What was measured:
Assay in all cases: LC/MS/MS identification of proteins from mouse liver extracts labeled with MTS-I-49
Type in all cases: biochemical
[1] = target: T1, betaine-homocysteine methyltransferase (Mus musculus, UniProt O35490)
T1 construct: from tissue; host or cells: mouse liver extract
T1 sequence (O35490 1-407): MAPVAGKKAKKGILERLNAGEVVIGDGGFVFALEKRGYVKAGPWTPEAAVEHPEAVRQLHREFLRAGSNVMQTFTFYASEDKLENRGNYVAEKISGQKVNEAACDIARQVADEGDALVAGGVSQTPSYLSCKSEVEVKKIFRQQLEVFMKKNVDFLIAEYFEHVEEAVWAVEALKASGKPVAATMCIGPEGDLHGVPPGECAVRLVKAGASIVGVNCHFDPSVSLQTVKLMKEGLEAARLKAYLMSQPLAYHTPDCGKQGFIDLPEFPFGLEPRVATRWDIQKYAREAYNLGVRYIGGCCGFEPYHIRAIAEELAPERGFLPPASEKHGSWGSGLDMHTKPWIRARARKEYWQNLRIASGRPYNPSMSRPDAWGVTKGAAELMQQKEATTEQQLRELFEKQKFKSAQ
Excerpt: (§1) (1991) Irreversible inhibition of serine proteases by peptide derivatives of (alpha-aminoalkyl)phosphonate diphenyl esters. Biochemistry 30, 485-493). However, it has not been used for any proteomic applications. We used MTS-I-49 to label mouse liver extracts and analyze the labeled sample by both SDS-PAGE (FIG. 5B) and by direct chemical cleavage or on bead digestion.
(§2) After enrichment on immobilized avidin, each of the three labeled proteomes (FIG. 5b) was divided into two aliquots. One was prepared for LC-MS/MS analysis by “on bead” digestion, while the other was chemically eluted and digested “in solution.” Proteins identified in each tissue lysate are listed with their accession number and theoretical molecular weight (MW). To compare both approaches, the number of identified peptides and percentage of amino acid sequence coverage is listed for each protein.
(§3) Proteins in the above Table were identified by LC/MS/MS analysis of on bead digested or chemically eluted proteins from mouse liver extracts labeled with MTS-I-49. […] BLAST database searching identified it as liver carboxylesterase 4. A number of additional endogenously biotinylated proteins were identified in the on-bead digested sample.

[2] = target: T2, glyceraldehyde-3-phosphate dehydrogenase (Mus musculus, UniProt P16858)
T2 construct: from tissue; host or cells: mouse liver extract
T2 sequence (P16858 whole entry): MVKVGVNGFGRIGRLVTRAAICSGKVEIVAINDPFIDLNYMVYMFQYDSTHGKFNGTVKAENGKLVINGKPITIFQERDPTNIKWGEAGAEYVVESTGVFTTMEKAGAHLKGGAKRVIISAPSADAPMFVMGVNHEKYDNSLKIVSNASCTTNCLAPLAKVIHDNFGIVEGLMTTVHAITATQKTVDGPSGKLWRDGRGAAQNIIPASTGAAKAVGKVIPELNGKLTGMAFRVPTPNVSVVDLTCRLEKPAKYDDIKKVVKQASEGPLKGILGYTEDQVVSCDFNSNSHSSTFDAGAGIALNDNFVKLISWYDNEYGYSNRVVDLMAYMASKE
Excerpt: as §1, §2, §3

[3] = target: T3, carbamoyl-phosphate synthase 1 (Mus musculus, UniProt Q8C196)
T3 construct: from tissue; host or cells: mouse liver extract
T3 sequence (Q8C196 39-1500): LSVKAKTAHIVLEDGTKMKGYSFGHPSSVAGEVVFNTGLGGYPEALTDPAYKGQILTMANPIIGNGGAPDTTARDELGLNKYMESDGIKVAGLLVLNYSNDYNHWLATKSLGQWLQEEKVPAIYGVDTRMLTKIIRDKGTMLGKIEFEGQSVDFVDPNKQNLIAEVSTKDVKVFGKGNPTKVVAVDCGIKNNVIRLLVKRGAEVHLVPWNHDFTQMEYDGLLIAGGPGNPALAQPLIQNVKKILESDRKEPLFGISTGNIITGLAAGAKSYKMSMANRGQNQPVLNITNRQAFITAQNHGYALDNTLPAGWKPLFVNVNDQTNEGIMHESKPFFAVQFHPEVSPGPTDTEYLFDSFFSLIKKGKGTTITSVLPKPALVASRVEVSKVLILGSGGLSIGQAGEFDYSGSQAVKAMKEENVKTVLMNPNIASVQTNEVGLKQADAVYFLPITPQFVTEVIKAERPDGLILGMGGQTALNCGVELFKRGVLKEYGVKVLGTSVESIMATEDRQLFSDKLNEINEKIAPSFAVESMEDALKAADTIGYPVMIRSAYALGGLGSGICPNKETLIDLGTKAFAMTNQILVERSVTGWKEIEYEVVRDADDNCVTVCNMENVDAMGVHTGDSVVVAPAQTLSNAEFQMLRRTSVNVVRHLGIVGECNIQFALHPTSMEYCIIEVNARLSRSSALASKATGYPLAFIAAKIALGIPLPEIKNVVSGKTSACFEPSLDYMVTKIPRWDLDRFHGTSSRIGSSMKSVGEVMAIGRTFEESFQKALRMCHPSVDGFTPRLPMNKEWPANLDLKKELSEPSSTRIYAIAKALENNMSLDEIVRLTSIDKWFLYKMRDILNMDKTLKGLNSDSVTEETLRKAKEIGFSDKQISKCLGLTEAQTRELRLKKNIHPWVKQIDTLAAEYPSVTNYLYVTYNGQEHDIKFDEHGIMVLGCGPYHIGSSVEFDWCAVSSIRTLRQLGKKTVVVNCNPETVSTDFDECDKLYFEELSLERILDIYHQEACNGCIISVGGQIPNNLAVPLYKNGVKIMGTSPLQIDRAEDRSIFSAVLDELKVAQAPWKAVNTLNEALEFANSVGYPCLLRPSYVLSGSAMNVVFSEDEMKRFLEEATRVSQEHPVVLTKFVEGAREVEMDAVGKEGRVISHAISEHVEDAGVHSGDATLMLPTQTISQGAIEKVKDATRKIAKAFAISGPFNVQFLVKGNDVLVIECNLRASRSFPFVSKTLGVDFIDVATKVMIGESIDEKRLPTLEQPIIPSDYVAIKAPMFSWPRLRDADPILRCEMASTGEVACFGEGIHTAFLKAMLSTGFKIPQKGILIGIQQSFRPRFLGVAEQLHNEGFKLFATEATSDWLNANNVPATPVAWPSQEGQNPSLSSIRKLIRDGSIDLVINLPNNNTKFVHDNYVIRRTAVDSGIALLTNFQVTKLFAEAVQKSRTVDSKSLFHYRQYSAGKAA
Excerpt: as §1, §2, §3

[4] = chemically eluted, digested in solution

C[C@H](NC(=O)c1ccc(N=Nc2cc(CCNC(=O)CCCC[C@@H]3SC[C@@H]4NC(=O)N[C@@H]43)ccc2O)cc1)C(=O)N[C@@H](C)C(=O)NC(Cc1ccccc1)P(=O)(Oc1ccccc1)Oc1ccccc1 (stereo partly drawn) [MTS-I-49]
Chemical Cleavage, number of identified peptides [1, 4]: 0
On Bead Digestion, amino acid sequence coverage ([1]; on bead digestion): 19%
On Bead Digestion, number of identified peptides ([1]; on bead digestion): 4
Chemical Cleavage, number of identified peptides [2, 4]: 0
On Bead Digestion, amino acid sequence coverage ([2]; on bead digestion): 10%
On Bead Digestion, number of identified peptides ([2]; on bead digestion): 2
Chemical Cleavage, number of identified peptides [3, 4]: 0
On Bead Digestion, amino acid sequence coverage ([3]; on bead digestion): 2 (2%)
On Bead Digestion, number of identified peptides ([3]; on bead digestion): 2 (2%)
